Two compounds from publication PMC9851200, “Multiparameter phenotypic screening for endogenous TFEB and TFE3 translocation identifies novel chemical series modulating lysosome function” (Autophagy, 2022) can be followed below.

What all share (assay type): binding
The target in experiment [1] is kinases (KINOMEscan panel) (Homo sapiens, UniProt P00533, DEL746-750). Conditions: NEW KINOMEscan.
For experiment [2], the target named is T1, kinases (KINOMEscan panel) (Homo sapiens, UniProt Q8NFD2).
T1 sequence (Q8NFD2 1-765): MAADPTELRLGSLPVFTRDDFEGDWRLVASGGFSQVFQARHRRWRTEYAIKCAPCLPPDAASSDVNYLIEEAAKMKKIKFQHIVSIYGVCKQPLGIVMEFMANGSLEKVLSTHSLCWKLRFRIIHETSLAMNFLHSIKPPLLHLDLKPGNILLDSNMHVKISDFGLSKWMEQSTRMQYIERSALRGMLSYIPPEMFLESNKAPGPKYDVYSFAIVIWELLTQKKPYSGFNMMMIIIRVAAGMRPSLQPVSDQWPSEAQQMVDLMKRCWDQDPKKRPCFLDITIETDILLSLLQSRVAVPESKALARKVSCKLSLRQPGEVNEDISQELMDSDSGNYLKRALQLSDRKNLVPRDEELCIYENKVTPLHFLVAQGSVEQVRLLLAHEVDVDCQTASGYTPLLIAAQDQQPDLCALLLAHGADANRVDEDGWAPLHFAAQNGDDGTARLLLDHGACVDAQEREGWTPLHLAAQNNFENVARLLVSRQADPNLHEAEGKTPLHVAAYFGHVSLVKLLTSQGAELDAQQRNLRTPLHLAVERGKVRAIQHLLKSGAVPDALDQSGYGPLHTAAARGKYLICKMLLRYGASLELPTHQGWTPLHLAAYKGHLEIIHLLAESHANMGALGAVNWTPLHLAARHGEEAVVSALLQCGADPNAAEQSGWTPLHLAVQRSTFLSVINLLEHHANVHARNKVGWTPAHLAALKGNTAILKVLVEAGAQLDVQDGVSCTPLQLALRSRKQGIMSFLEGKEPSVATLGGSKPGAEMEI
As to conditions: ANKK1; NEW KINOMEscan.

The target in experiment [3] is T2, kinases (KINOMEscan panel) (Homo sapiens, UniProt P29320).
T2 sequence (P29320 21-983): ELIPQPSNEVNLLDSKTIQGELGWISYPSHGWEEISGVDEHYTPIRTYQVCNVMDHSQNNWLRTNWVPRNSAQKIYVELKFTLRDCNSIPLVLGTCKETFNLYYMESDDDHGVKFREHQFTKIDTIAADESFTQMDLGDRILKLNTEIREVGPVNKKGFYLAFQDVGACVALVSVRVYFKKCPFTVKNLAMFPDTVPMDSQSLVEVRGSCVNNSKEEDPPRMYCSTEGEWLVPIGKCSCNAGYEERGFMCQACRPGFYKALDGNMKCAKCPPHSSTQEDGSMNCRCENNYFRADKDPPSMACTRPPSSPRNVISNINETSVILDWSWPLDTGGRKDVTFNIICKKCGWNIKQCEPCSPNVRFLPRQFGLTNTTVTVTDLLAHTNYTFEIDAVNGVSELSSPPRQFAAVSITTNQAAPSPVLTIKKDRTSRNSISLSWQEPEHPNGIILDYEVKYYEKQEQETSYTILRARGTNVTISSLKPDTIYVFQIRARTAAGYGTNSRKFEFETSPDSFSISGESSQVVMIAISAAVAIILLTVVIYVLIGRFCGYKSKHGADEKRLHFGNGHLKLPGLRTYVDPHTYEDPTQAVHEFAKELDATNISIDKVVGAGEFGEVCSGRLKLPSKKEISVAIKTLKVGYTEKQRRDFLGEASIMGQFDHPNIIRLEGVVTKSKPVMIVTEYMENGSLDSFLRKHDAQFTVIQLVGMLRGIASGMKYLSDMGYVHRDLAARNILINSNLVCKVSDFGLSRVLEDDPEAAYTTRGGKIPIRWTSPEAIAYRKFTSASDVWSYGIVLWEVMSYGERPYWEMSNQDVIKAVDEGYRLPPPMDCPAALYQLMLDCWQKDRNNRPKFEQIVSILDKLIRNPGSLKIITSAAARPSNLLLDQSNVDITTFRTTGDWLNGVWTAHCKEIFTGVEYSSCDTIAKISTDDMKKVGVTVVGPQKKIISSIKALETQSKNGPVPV
Conditions: kinase EPHA3; NEW KINOMEscan.

Experiment [4] addresses kinases (KINOMEscan panel) (Homo sapiens, UniProt Q9P286). Conditions: kinase PAK5; NEW KINOMEscan.
The target in experiment [5] is T3, kinases (KINOMEscan panel) (Homo sapiens, UniProt Q96BR1).
T3 sequence (Q96BR1 1-496): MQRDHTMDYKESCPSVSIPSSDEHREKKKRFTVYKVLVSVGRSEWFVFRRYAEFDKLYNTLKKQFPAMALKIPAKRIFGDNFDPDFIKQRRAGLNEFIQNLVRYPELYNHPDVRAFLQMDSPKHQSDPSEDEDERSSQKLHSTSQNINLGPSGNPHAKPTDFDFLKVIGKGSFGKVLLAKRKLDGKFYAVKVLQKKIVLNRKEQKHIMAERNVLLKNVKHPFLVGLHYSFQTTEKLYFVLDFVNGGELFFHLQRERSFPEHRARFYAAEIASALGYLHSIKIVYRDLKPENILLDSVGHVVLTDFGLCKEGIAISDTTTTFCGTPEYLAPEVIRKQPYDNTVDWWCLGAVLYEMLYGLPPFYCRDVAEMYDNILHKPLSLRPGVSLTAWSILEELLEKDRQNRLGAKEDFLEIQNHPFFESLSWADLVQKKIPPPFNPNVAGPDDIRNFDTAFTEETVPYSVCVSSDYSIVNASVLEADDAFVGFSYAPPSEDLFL
As to conditions: kinase SGK3; NEW KINOMEscan.

Sequence of kinases (KINOMEscan panel) (Homo sapiens, UniProt Q9P286) (Q9P286 whole entry): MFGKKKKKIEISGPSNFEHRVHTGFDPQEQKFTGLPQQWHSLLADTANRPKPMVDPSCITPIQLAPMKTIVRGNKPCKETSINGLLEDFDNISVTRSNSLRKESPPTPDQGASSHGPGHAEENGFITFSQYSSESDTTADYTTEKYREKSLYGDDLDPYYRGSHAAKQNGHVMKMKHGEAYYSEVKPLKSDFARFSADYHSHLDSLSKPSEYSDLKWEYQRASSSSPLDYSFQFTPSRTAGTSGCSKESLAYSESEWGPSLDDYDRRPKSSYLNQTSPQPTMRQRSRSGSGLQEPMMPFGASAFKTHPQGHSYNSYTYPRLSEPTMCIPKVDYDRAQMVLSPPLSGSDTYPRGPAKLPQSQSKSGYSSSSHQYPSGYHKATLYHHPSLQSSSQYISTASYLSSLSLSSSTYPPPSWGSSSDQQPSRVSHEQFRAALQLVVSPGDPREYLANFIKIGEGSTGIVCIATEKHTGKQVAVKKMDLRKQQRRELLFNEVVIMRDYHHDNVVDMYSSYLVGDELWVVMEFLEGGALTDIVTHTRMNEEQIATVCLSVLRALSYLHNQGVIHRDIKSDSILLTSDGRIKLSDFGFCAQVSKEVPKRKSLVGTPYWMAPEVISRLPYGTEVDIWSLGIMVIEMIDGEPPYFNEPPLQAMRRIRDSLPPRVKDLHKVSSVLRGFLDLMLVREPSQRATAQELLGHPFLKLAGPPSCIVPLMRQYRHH
Sequence of kinases (KINOMEscan panel) (Homo sapiens, UniProt P00533, DEL746-750) (P00533 with tags, fused parts or gaps DEL746-750): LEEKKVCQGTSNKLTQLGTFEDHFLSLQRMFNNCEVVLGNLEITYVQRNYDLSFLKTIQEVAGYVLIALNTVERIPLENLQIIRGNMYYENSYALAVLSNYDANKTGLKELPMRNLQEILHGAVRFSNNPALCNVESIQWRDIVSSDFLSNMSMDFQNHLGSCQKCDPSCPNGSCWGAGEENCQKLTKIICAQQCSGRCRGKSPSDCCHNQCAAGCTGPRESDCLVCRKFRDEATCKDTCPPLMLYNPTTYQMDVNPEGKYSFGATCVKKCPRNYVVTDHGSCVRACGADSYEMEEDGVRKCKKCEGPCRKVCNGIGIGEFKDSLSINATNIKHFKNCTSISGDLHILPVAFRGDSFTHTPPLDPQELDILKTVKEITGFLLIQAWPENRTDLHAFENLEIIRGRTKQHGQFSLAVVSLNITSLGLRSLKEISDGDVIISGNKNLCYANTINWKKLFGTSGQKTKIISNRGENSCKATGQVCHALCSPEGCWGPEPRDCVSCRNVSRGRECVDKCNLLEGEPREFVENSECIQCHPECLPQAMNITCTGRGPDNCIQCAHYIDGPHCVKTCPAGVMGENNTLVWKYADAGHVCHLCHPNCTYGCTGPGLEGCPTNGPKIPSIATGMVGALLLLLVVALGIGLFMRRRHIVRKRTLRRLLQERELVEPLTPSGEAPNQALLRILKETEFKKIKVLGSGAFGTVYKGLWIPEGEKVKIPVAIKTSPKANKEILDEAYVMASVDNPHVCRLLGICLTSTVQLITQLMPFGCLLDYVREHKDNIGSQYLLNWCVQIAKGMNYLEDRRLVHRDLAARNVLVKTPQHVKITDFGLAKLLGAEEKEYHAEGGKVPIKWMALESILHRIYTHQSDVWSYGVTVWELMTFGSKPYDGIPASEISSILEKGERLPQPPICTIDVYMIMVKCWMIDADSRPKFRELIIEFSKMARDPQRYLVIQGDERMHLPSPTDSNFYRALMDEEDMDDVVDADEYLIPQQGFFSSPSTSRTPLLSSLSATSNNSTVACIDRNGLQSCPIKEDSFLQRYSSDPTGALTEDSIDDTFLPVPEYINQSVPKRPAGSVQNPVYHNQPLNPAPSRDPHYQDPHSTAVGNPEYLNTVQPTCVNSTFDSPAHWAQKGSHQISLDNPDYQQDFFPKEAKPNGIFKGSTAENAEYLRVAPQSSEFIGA

Take `Cc1cccc(-c2nc(N(C)c3ccc4ncsc4c3)c3ccccc3n2)n1` [NK-161]: the “KINOMEscan EGFR(E746-A750del)” value in experiment [1] came out at 21. In experiment [2], the “KINOMEscan ANKK1” value amounted to 0. Moreover, the “KINOMEscan EPHA3” value in experiment [3] was 0. Besides, the “KINOMEscan PAK5” value in experiment [4] came out at 2. Also, the “KINOMEscan SGK3” value in experiment [5] is 13.

For `Cc1cccc(-c2nc(Nc3ccc4nn(C)cc4c3)c3ccccc3n2)n1` [NK167], the “KINOMEscan EGFR(E746-A750del)” value in experiment [1] stood at 15. Further, in experiment [2], the “KINOMEscan ANKK1” value is reported as 0. For the same compound, the “KINOMEscan EPHA3” value in experiment [3] came out at 0. Moreover, the “KINOMEscan PAK5” value in experiment [4] is reported as 0. Also, the “KINOMEscan SGK3” value in experiment [5] came to 0.
